Results published in patent publication US7569570B2, “Thienopyrimidines, process for preparing the same and use thereof” (Takeda Pharmaceutical Company Limited, priority 2002, dated 2009).

| Structure (SMILES) | melting point |
| --- | --- |
| CCNC(=O)Nc1ccc(-c2sc3c(c2CN(C)CCCC(=O)OCC)c(=O)n(-c2ccccc2)c(=O)n3Cc2c(F)cccc2F)cc1 [Example 6, ethyl 4-[{[1-(2,6-difluorobenzyl)-6-(4-{[(ethylamino)carbonyl]amino}phenyl)-2,4-dioxo-3-phenyl-1,2,3,4-tetrahydrothieno[2,3-d]pyrimidin-5-yl]methyl}(methyl)amino]butanate] | 203 to 204 °C |
| CCNC(=O)Nc1ccc(-c2sc3c(c2CN(C)CCC(=O)NC)c(=O)n(-c2ccc(F)cc2)c(=O)n3Cc2c(F)cccc2F)cc1 [Example 30] | 237 to 239 °C |
| CCNC(=O)Nc1ccc(-c2sc3c(c2CN(C)CCN(C)C(C)=O)c(=O)n(-c2ccccc2)c(=O)n3Cc2c(F)cccc2F)cc1 [Example 27, N-{2-[{[1-(2,6-difluorobenzyl)-6-(4-{[(ethylamino)carbonyl]amino}phenyl)-2,4-dioxo-3-phenyl-1,2,3,4-tetrahydrothieno[2,3-d]pyrimidin-5-yl]methyl}(methyl)amino]ethyl}-N-methylacetamide] | 180 to 181 °C |
| CCNC(=O)Nc1ccc(-c2sc3c(c2CN(C)CCOC)c(=O)n(-c2ccc(N)cc2)c(=O)n3Cc2c(F)cccc2F)cc1 [Example 97, N-[4-(3-(4-aminophenyl)-1-(2,6-difluorobenzyl)-5-{[2-methoxyethyl(methyl)amino]methyl}-2,4-dioxo-1,2,3,4-tetrahydrothieno[2,3-d]pyrimidin-6-yl)phenyl]-N′-ethylurea] | 205 to 207 °C |
| CCNC(=O)Nc1ccc(-c2sc3c(c2CN(C)CCC(=O)N(C)C)c(=O)n(-c2ccccc2)c(=O)n3Cc2c(F)cccc2F)cc1 [Example 10, 3-[{[1-(2,6-difluorobenzyl)-6-(4-{[(ethylamino)carbonyl]amino}phenyl)-2,4-dioxo-3-phenyl-1,2,3,4-tetrahydrothieno[2,3-d]pyrimidin-5-yl]methyl}(methyl)amino]-N,N-dimethylpropanamide] | 236 to 237 °C |
| CCNC(=O)Nc1ccc(-c2sc3c(c2CN(C)CCN(C)Cc2ccccc2)c(=O)n(-c2ccccc2)c(=O)n3Cc2c(F)cccc2F)cc1 [Example 25, N-{4-[5-{[{2-[benzyl(methyl)amino]ethyl}(methyl)amino]methyl}-1-(2,6-difluorobenzyl)-2,4-dioxo-3-phenyl-1,2,3,4-tetrahydrothieno[2,3-d]pyrimidin-6-yl]phenyl}-N′-ethylurea] | 151 to 153 °C |
| CCNC(=O)Nc1ccc(-c2sc3c(c2CN(C)CCOCCOC)c(=O)n(-c2ccccc2)c(=O)n3Cc2c(F)cccc2F)cc1 [Example 109, N-[4-(1-(2,6-difluorobenzyl)-5-{[[2-(2-methoxyethoxy)ethyl](methyl)amino]methyl}-2,4-dioxo-3 phenyl-1,2,3,4-tetrahydrothieno[2,3-d]pyrimidin-6-yl)phenyl]-N′-ethylurea] | 228 to 231 °C |
| CCNC(=O)Nc1ccc(-c2sc3c(c2CN(C)CCNC(C)=O)c(=O)n(-c2ccccc2)c(=O)n3Cc2c(F)cccc2F)cc1 [Example 19, N-{2-[{[1-(2,6-difluorobenzyl)-6-(4-{[(ethylamino)carbonyl]amino}phenyl)-2,4-dioxo-3-phenyl-1,2,3,4-tetrahydrothieno[2,3-d]pyrimidin-5-yl]methyl}(methyl)amino]ethyl}acetamide] | 185 to 186 °C |
| CCNC(=O)Nc1ccc(-c2sc3c(c2CN(C)CCOC)c(=O)n(-c2ccc(NC(C)=O)cc2)c(=O)n3Cc2c(F)cccc2F)cc1 [Example 98, N-[4-(3-(4-acetoaminophenyl)-1-(2,6-difluorobenzyl)-5-{[2-methoxyethyl(methyl)amino]methyl}-2,4-dioxo-1,2,3,4-tetrahydrothieno[2,3-d]pyrimidin-6-yl)phenyl]-N′-ethylurea] | 218 to 220 °C |
| CCNC(=O)Nc1ccc(-c2sc3c(c2CN(C)C[C@@H]2CCCN2S(C)(=O)=O)c(=O)n(-c2ccccc2)c(=O)n3Cc2c(F)cccc2F)cc1 [Example 84] | 189 to 191 °C |
| CCNC(=O)Nc1ccc(-c2sc3c(c2CN(C)CC(=O)OCC)c(=O)n(-c2ccccc2)c(=O)n3Cc2c(F)cccc2F)cc1 [Example 5, ethyl[{[1-(2,6-difluorobenzyl)-6-(4-{[(ethylamino)carbonyl]amino}phenyl)-2,4-dioxo-3-phenyl-1,2,3,4-tetrahydrothieno[2,3-d]pyrimidin-5-yl]methyl}(methyl)amino]acetate] | 208 to 209 °C |
| CCNC(=O)Nc1ccc(-c2sc3c(c2CN(C)C2CCCC2)c(=O)n(-c2ccccc2)c(=O)n3Cc2c(F)cccc2F)cc1 [Example 93, N-{4-[5-{[cyclopentyl(methyl)amino]methyl}-1-(2,6-difluorobenzyl)-2,4-dioxo-3-phenyl-1,2,3,4-tetrahydrothieno[2,3-d]pyrimidin-6-yl]phenyl}-N′-ethylurea] | 210 to 213 °C |
| CCNC(=O)Nc1ccc(-c2sc3c(c2CN(C)CCOC)c(=O)n(-c2ccc(OCc4ccccc4)cc2)c(=O)n3Cc2c(F)cccc2F)cc1 [Example 102] | 223 to 225 °C |
| CCNC(=O)Nc1ccc(-c2sc3c(c2CN(C)CCN2CCCC2=O)c(=O)n(-c2ccccc2)c(=O)n3Cc2c(F)cccc2F)cc1 [Example 20, N-{4-[1-(2,6-difluorobenzyl)-5-({methyl[2-(2-oxo-1-pyrrolidinyl)ethyl]amino}methyl)-2,4-dioxo-3-phenyl-1,2,3,4-tetrahydrothieno[2,3-d]pyrimidin-6-yl]phenyl}-N′-ethylurea] | 140 to 142 °C |
| CCNC(=O)Nc1ccc(-c2sc3c(c2CN(C)CCC(=O)OCC)c(=O)n(-c2ccccc2)c(=O)n3Cc2c(F)cccc2F)cc1 [Example 4, ethyl 3-[{[1-(2,6-difluorobenzyl)-6-(4-{[(ethylamino)carbonyl]amino}phenyl)-2,4-dioxo-3-phenyl-1,2,3,4-tetrahydrothieno[2,3-d]pyrimidin-5-yl]methyl}(methyl)amino]propanate] | 198 to 200 °C |
| CCNC(=O)Nc1ccc(-c2sc3c(c2CN(C)CCCC(=O)N(C)C)c(=O)n(-c2ccccc2)c(=O)n3Cc2c(F)cccc2F)cc1 [Example 18, 4-[{[1-(2,6-difluorobenzyl)-6-(4-{[(ethylamino)carbonyl]amino}phenyl)-2,4-dioxo-3-phenyl-1,2,3,4-tetrahydrothieno[2,3-d]pyrimidin-5-yl]methyl}(methyl)amino]-N,N-dimethylbutane amide] | 191 to 193 °C |
| CCNC(=O)Nc1ccc(-c2sc3c(c2CNCCOC)c(=O)n(-c2ccccc2)c(=O)n3Cc2c(F)cccc2F)cc1 [Example 2, N-[4-(1-(2,6-difluorobenzyl)-5-{[(2-methoxyethyl)amino]methyl}-2,4-dioxo-3-phenyl-1,2,3,4-tetrahydrothieno[2,3-d]pyrimidin-6-yl)phenyl]-N′-ethylurea] | 221 to 223 °C |
| CCNC(=O)Nc1ccc(-c2sc3c(c2CN(C)CCN2CCCS2(=O)=O)c(=O)n(-c2ccccc2)c(=O)n3Cc2c(F)cccc2F)cc1 [Example 86, N-[4-(1-(2,6-difluorobenzyl)-5-([[2-(1,1-dioxo-2-isothiazolidinyl)ethyl](methyl)amino]methyl}-2,4-dioxo-3-phenyl-1,2,3,4-tetrahydrothieno[2,3-d]pyrimidin-6-yl)phenyl]-N′-ethylurea] | 210 to 211 °C |
| CCNC(=O)Nc1ccc(-c2sc3c(c2CNCCOCC)c(=O)n(-c2ccccc2)c(=O)n3Cc2c(F)cccc2F)cc1 [Example 3] | 211 to 213 °C |
| CCNC(=O)Nc1ccc(-c2sc3c(c2CN(C)CCN2CCCC2=O)c(=O)n(-c2ccc(F)cc2)c(=O)n3Cc2c(F)cccc2F)cc1 [Example 33] | 204 to 206 °C |
| CCNC(=O)Nc1ccc(-c2sc3c(c2CN(C)CCN(C)S(C)(=O)=O)c(=O)n(-c2ccc(F)cc2)c(=O)n3Cc2c(F)cccc2F)cc1 [Example 37, N-{2-[{[1-(2,6-difluorobenzyl)-6-(4-{[(ethylamino)carbonyl]amino}phenyl)-3-(4-fluorophenyl)-2,4-dioxo-1,2,3,4-tetrahydrothieno[2,3-d]pyrimidin-5-yl]methyl}(methyl)amino]ethyl}-N-methylsulfonamide] | 228 to 230 °C |
| CCNC(=O)Nc1ccc(-c2sc3c(c2CN(C)CCOC)c(=O)n(-c2ccc(O)cc2)c(=O)n3Cc2c(F)cccc2F)cc1 [Example 103] | 260 to 265 °C |
| CCNC(=O)Nc1ccc(-c2sc3c(c2CN(C)CCC(=O)N(C)C)c(=O)n(-c2ccc(F)cc2)c(=O)n3Cc2c(F)cccc2F)cc1 [Example 32] | 210 to 212 °C |
| CCNC(=O)Nc1ccc(-c2sc3c(c2CN(C)CCOC)c(=O)n(-c2ccc(OCCO)cc2)c(=O)n3Cc2c(F)cccc2F)cc1 [Example 108] | 236 to 238 °C |
| CCNC(=O)Nc1ccc(-c2sc3c(c2CN(C)C(C)C)c(=O)n(-c2ccccc2)c(=O)n3Cc2c(F)cccc2F)cc1 [Example 92, N-[4-(1-(2,6-difluorobenzyl)-5-{[isopropyl (methyl)amino]methyl}-2,4-dioxo-3-phenyl-1,2,3,4-tetrahydrothieno[2,3-d]pyrimidin-6-yl)phenyl]-N′-ethylurea] | 208 to 210 °C |
| CCNC(=O)Nc1ccc(-c2sc3c(c2CN(C)C2CCCCC2)c(=O)n(-c2ccccc2)c(=O)n3Cc2c(F)cccc2F)cc1 [Example 91, N-{4-[5-{[cyclohexyl(methyl)amino]methyl}-1-(2,6-difluorobenzyl)-2,4-dioxo-3-phenyl-1,2,3,4-tetrahydrothieno[2,3-d]pyrimidin-6-yl]phenyl}-N′-ethylurea] | 210 to 212 °C |
| CCNC(=O)Nc1ccc(-c2sc3c(c2CN(C)CCOC)c(=O)n(-c2ccc(OCCOC)c(OCCOC)c2)c(=O)n3Cc2c(F)cccc2F)cc1 [Example 105] | 222 to 225 °C |
| CCNC(=O)Nc1ccc(-c2sc3c(c2CN(C)CCOC)c(=O)n(-c2ccc(OCCOC)c(OCCOC)c2)c(=O)n3Cc2c(F)cccc2F)cc1 [Example 101, N-[4-(3-[3,4-bis(2-methoxyethoxy)phenyl]-1-(2,6-difluorobenzyl)-5-{[(2-methoxyethyl)(methyl)amino]methyl}-2,4-dioxo-1,2,3,4-tetrahydrothieno[2,3-d]pyrimidin-6-yl)phenyl]-N′-ethylurea] | 206 to 208 °C |
